# Source: US11446287B2, “Compounds and methods for EP300 or CBP modulation and indications therefor” (Opna Immuno-Oncology SA, priority 2019, dated 2022)
# Target: T1, Recombinant human CBP containing the bromodomain (CBP-BD (1043-1159)) (Homo sapiens, UniProt Q92793)
# T1 construct: Recombinant human CBP bromodomain (CBP-BD (1043-1159)); made in house; host or cells: E. coli BL21-CodonPlus (DE3), modified pET vector
# Test: CBP Alphascreen binding assay
# Conditions: read-out: CREBBP (CBP) IC50
# How it was run: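 Buffer: 50 mM HEPES pH 7.5, 50 mM NaCl, 0.01% BSA, 0.01% Triton X-100, 2 mM DTT. The signal was normalised to plate controls and fitted with a four-parameter curve to give IC50.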
# T1 sequence (Q92793 1081-1197): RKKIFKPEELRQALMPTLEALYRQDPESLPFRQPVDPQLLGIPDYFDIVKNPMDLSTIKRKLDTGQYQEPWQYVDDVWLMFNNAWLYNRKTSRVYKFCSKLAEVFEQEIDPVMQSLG
row,SMILES,IC50
1,"Cc1noc(C)c1-c1cnc2c(c1)c(-c1ccc(C(=O)O)cc1Cl)cn2C(c1ccccn1)C1CCCC1 (stereo not shown) [P-0027, 3-chloro-4-(1-(cyclopentyl(pyridin-2-yl)methyl)-5-(3,5-dimethylisoxazol-4-yl)-1H-pyrrolo[2,3-b]pyridin-3-yl)benzoic acid]",0.1 to 1000 nM
2,"Cc1cc(-c2cn(C(c3ccccn3)C3CCCC3)c3ncc(-c4c(C)noc4C)cc23)ccc1C(=O)O (stereo not shown) [P-0028, 4-(1-(cyclopentyl(pyridin-2-yl)methyl)-5-(3,5-dimethylisoxazol-4-yl)-1H-pyrrolo[2,3-b]pyridin-3-yl)-2-methylbenzoic acid]",0.1 to 1000 nM
3,"Cc1noc(C)c1-c1cnc2c(c1)c(-c1ccc(C(=O)O)c(C(F)(F)F)c1)cn2C(c1ccccn1)C1CCCC1 (stereo not shown) [P-0029, 4-(1-(cyclopentyl(pyridin-2-yl)methyl)-5-(3,5-dimethylisoxazol-4-yl)-1H-pyrrolo[2,3-b]pyridin-3-yl)-2-(trifluoromethyl)benzoic acid]",0.1 to 1000 nM
4,"Cc1noc(C)c1-c1cnc2c(c1)c(-c1ccc(C(=O)O)c(O)c1)cn2C(c1ccccn1)C1CCCC1 (stereo not shown) [P-0030, 4-(1-(cyclopentyl(pyridin-2-yl)methyl)-5-(3,5-dimethylisoxazol-4-yl)-1H-pyrrolo[2,3-b]pyridin-3-yl)-2-hydroxybenzoic acid]",1000 to 8000 nM
5,"Cc1noc(C)c1-c1cnc2c(c1)c(-c1ccc(CC(=O)O)cc1)cn2C(c1ccccn1)C1CCCC1 (stereo not shown) [P-0031, 2-(4-(1-(cyclopentyl(pyridin-2-yl)methyl)-5-(3,5-dimethylisoxazol-4-yl)-1H-pyrrolo[2,3-b]pyridin-3-yl)phenyl)acetic acid]",0.1 to 1000 nM
6,"Cc1noc(C)c1-c1cnc2c(c1)c(-c1ccc(C(C)(C)C(=O)O)cc1)cn2C(c1ccccn1)C1CCCC1 (stereo not shown) [P-0032, 2-(4-(1-(cyclopentyl(pyridin-2-yl)methyl)-5-(3,5-dimethylisoxazol-4-yl)-1H-pyrrolo[2,3-b]pyridin-3-yl)phenyl)-2-methylpropanoic acid]",0.1 to 1000 nM
7,"Cc1noc(C)c1-c1cnc2c(c1)c(-c1ccc(C3(C(=O)O)CC3)cc1)cn2C(c1ccccn1)C1CCCC1 (stereo not shown) [P-0033, 1-(4-(1-(cyclopentyl(pyridin-2-yl)methyl)-5-(3,5-dimethylisoxazol-4-yl)-1H-pyrrolo[2,3-b]pyridin-3-yl)phenyl)cyclopropane-1-carboxylic acid]",0.1 to 1000 nM
8,"Cc1noc(C)c1-c1cnc2c(c1)c(-c1ccc(C(F)(F)C(=O)O)cc1)cn2C(c1ccccn1)C1CCCC1 (stereo not shown) [P-0034, 2-(4-(1-(cyclopentyl(pyridin-2-yl)methyl)-5-(3,5-dimethylisoxazol-4-yl)-1H-pyrrolo[2,3-b]pyridin-3-yl)phenyl)-2,2-difluoroacetic acid]",0.1 to 1000 nM
9,"COc1ncccc1-n1cc(-c2ccc(C(=O)O)cc2OC(F)(F)F)c2cc(-c3c(C)noc3C)cnc21 [P-0316, 4-(5-(3,5-dimethylisoxazol-4-yl)-1-(2-methoxypyridin-3-yl)-1H-pyrrolo[2,3-b]pyridin-3-yl)-3-(trifluoromethoxy)benzoic acid]",0.1 to 1000 nM
10,"Cc1ncccc1-n1cc(-c2ccc(C(=O)O)cc2OC(F)(F)F)c2cc(-c3c(C)noc3C)cnc21 [P-0317, 4-(5-(3,5-dimethylisoxazol-4-yl)-1-(2-methylpyridin-3-yl)-1H-pyrrolo[2,3-b]pyridin-3-yl)-3-(trifluoromethoxy)benzoic acid]",0.1 to 1000 nM
11,"Cc1noc(C)c1-c1cnc2c(c1)c(-c1ccc(C(=O)O)cc1OC(F)(F)F)cn2-c1cnn(C)c1 [P-0318, 4-(5-(3,5-dimethylisoxazol-4-yl)-1-(1-methyl-1H-pyrazol-4-yl)-1H-pyrrolo[2,3-b]pyridin-3-yl)-3-(trifluoromethoxy)benzoic acid]",0.1 to 1000 nM
12,"Cc1noc(C)c1-c1cnc2c(c1)c(-c1ccc(C(=O)O)cc1OC(F)(F)F)cn2-c1cncnc1 [P-0319, 4-(5-(3,5-dimethylisoxazol-4-yl)-1-(pyrimidin-5-yl)-1H-pyrrolo[2,3-b]pyridin-3-yl)-3-(trifluoromethoxy)benzoic acid]",0.1 to 1000 nM
13,"Cc1noc(C)c1-c1cnc2c(c1)c(-c1ccc(C(=O)O)cc1OC(F)(F)F)cn2-c1cnc(N)nc1 [P-0320, 4-(1-(2-aminopyrimidin-5-yl)-5-(3,5-dimethylisoxazol-4-yl)-1H-pyrrolo[2,3-b]pyridin-3-yl)-3-(trifluoromethoxy)benzoic acid]",0.1 to 1000 nM
14,Cc1noc(C)c1-c1cnc2c(c1)c(-c1ccc(C(=O)O)cc1OC(F)(F)F)cn2-c1cnc(N(C)C)nc1 [P-0321],0.1 to 1000 nM
15,"Cc1noc(C)c1-c1cnc2c(c1)c(-c1ccc(C(=O)O)cc1OC(F)(F)F)cn2-c1ccc(C(=O)O)cc1 [P-0322, 4-(1-(4-carboxyphenyl)-5-(3,5-dimethylisoxazol-4-yl)-1H-pyrrolo[2,3-b]pyridin-3-yl)-3-(trifluoromethoxy)benzoic acid]",0.1 to 1000 nM
16,"Cc1noc(C)c1-c1cnc2c(c1)c(-c1ccc(C(=O)O)cc1OC(F)(F)F)cn2-c1ccc(C(N)=O)cc1 [P-0323, 4-(1-(4-carbamoylphenyl)-5-(3,5-dimethylisoxazol-4-yl)-1H-pyrrolo[2,3-b]pyridin-3-yl)-3-(trifluoromethoxy)benzoic acid]",0.1 to 1000 nM

row,SMILES,IC50
1,"COc1cc(C(=O)O)ncc1-c1cn(-c2ccncc2Cl)c2ncc(-c3c(C)noc3C)cc12 [P-0324, 5-(1-(3-chloropyridin-4-yl)-5-(3,5-dimethylisoxazol-4-yl)-1H-pyrrolo[2,3-b]pyridin-3-yl)-4-methoxypicolinic acid]",0.1 to 1000 nM
2,"Cc1noc(C)c1-c1cnc2c(c1)c(-c1ccc(C(=O)O)cc1OCC(F)F)cn2[C@H]1CCOC1 [P-0325, (S)-3-(2,2-difluoroethoxy)-4-(5-(3,5-dimethylisoxazol-4-yl)-1-(tetrahydrofuran-3-yl)-1H-pyrrolo[2,3-b]pyridin-3-yl)benzoic acid]",0.1 to 1000 nM
3,"CCn1cc(-n2cc(-c3ccc(C(=O)O)cc3OCC(F)F)c3cc(-c4c(C)noc4C)cnc32)c(C)n1 [P-0326, 3-(2,2-difluoroethoxy)-4-(5-(3,5-dimethylisoxazol-4-yl)-1-(1-ethyl-3-methyl-1H-pyrazol-4-yl)-1H-pyrrolo[2,3-b]pyridin-3-yl)benzoic acid]",0.1 to 1000 nM
4,"Cc1noc(C)c1-c1cnc2c(c1)c(-c1c(F)cc(C(=O)O)cc1OCC(F)F)cn2-c1ccccc1 [P-0327, 3-(2,2-difluoroethoxy)-4-(5-(3,5-dimethylisoxazol-4-yl)-1-phenyl-1H-pyrrolo[2,3-b]pyridin-3-yl)-5-fluorobenzoic acid]",0.1 to 1000 nM
5,"Cc1noc(C)c1-c1cnc2c(c1)c(-c1ccc(C(=O)O)cc1OCC(F)F)cn2-c1cnc(N2CCC2)nc1 [P-0328, 4-(1-(2-(azetidin-1-yl)pyrimidin-5-yl)-5-(3,5-dimethylisoxazol-4-yl)-1H-pyrrolo[2,3-b]pyridin-3-yl)-3-(2,2-difluoroethoxy)benzoic acid]",0.1 to 1000 nM
6,"CCOc1cc(C(=O)O)nc(OCC)c1-c1cn(-c2ccc(F)cc2F)c2ncc(-c3c(C)noc3C)cc12 [P-0329, 5-(1-(2,4-difluorophenyl)-5-(3,5-dimethylisoxazol-4-yl)-1H-pyrrolo[2,3-b]pyridin-3-yl)-4,6-diethoxypicolinic acid]",0.1 to 1000 nM
7,"CCOc1cc(C(=O)O)c(F)cc1-c1cn(-c2ccc(F)cc2F)c2ncc(-c3c(C)noc3C)cc12 [P-0330, 4-(1-(2,4-difluorophenyl)-5-(3,5-dimethylisoxazol-4-yl)-1H-pyrrolo[2,3-b]pyridin-3-yl)-5-ethoxy-2-fluorobenzoic acid]",0.1 to 1000 nM
8,"Cc1noc(C)c1-c1cnc2c(c1)c(-c1c(Cl)cc(C(=O)O)cc1OCC(F)F)cn2-c1cnc(N2CCC2)nc1 [P-0331, 4-(1-(2-(azetidin-1-yl)pyrimidin-5-yl)-5-(3,5-dimethylisoxazol-4-yl)-1H-pyrrolo[2,3-b]pyridin-3-yl)-3-chloro-5-(2,2-difluoroethoxy)benzoic acid]",0.1 to 1000 nM
9,"Cc1noc(C)c1-c1cnc2c(c1)c(-c1c(Cl)cc(C(=O)O)cc1OCC(F)F)cn2-c1ccccc1 [P-0332, 3-chloro-5-(2,2-difluoroethoxy)-4-(5-(3,5-dimethylisoxazol-4-yl)-1-phenyl-1H-pyrrolo[2,3-b]pyridin-3-yl)benzoic acid]",0.1 to 1000 nM
10,"Cc1noc(C)c1-c1cnc2c(c1)c(-c1c(Cl)cc(C(=O)O)cc1OCC(F)F)cn2[C@H]1CCOC1 [P-0333, (S)-3-chloro-5-(2,2-difluoroethoxy)-4-(5-(3,5-dimethylisoxazol-4-yl)-1-(tetrahydrofuran-3-yl)-1H-pyrrolo[2,3-b]pyridin-3-yl)benzoic acid]",0.1 to 1000 nM
11,"Cc1noc(C)c1-c1cnc2c(c1)c(-c1ccc(C(=O)O)cc1OC1CCC1)cn2-c1ncccc1C#N [P-0334, 4-(1-(3-cyanopyridin-2-yl)-5-(3,5-dimethylisoxazol-4-yl)-1H-pyrrolo[2,3-b]pyridin-3-yl)-3-cyclobutoxybenzoic acid]",0.1 to 1000 nM
12,"Cc1noc(C)c1-c1cnc2c(c1)c(-c1ccc(C(=O)O)cc1OC(F)(F)F)cn2C1(CC#N)CCC1 [P-0335, 4-(1-(1-(cyanomethyl)cyclobutyl)-5-(3,5-dimethylisoxazol-4-yl)-1H-pyrrolo[2,3-b]pyridin-3-yl)-3-(trifluoromethoxy)benzoic acid]",0.1 to 1000 nM
13,"Cc1noc(C)c1-c1cnc2c(c1)c(-c1ccc(C(=O)O)cc1OC(C)C)cn2-c1ncccc1C#N [P-0336, 4-(1-(3-cyanopyridin-2-yl)-5-(3,5-dimethylisoxazol-4-yl)-1H-pyrrolo[2,3-b]pyridin-3-yl)-3-isopropoxybenzoic acid]",0.1 to 1000 nM
14,"Cc1noc(C)c1-c1cnc2c(c1)c(-c1ccc(C(=O)O)cc1OC1CC1)cn2-c1ncccc1C#N [P-0337, 4-(1-(3-cyanopyridin-2-yl)-5-(3,5-dimethylisoxazol-4-yl)-1H-pyrrolo[2,3-b]pyridin-3-yl)-3-cyclopropoxybenzoic acid]",0.1 to 1000 nM
15,"Cc1noc(C)c1-c1cnc2c(c1)c(-c1ccc(C(=O)O)cc1OCC(F)F)cn2C(C1CC1)C1CC1 [P-0338, 4-(1-(dicyclopropylmethyl)-5-(3,5-dimethylisoxazol-4-yl)-1H-pyrrolo[2,3-b]pyridin-3-yl)-3-(2,2-difluoroethoxy)benzoic acid]",0.1 to 1000 nM
